Numbers after ± are expanded uncertainties.
Test: xn = mol fraction of the nth substance listed
Details: Liquid; for speed of sound: Frequency=3 MHz, Pulse-echo method; for mass density: Vibrating tube method

CCCCCCCCCCCC [dodecane] + O=C=O
Details | mass density, 303.15 K [kg/m3] | mass density, 313.15 K [kg/m3] | speed of sound, 303.15 K [m/s] | speed of sound, 313.15 K [m/s]
10000 kPa, x2 = 0 | 748.5 ± 0.8 | 741.6 ± 0.8 | 1318.5 ± 1.8 | 1281.7 ± 1.8
10000 kPa, x2 = 0.2032 | – | – | 1245.6 ± 1.7 | 1209.7 ± 1.8
10000 kPa, x2 = 0.205 | 756.3 ± 0.7 | 748.8 ± 0.7 | – | –
10000 kPa, x2 = 0.3989 | – | – | 1152.2 ± 1.3 | 1114.6 ± 1.8
10000 kPa, x2 = 0.4 | 767.4 ± 0.6 | 758.7 ± 0.6 | – | –
10000 kPa, x2 = 0.6007 | – | – | 1011.6 ± 1.5 | 969.6 ± 1.9
10000 kPa, x2 = 0.6008 | 784.3 ± 0.6 | 773.3 ± 0.6 | – | –
10000 kPa, x2 = 0.7497 | 802.5 ± 0.6 | 786.6 ± 0.6 | – | –
10000 kPa, x2 = 0.7498 | – | – | 845.5 ± 1.5 | 793.2 ± 1.9
10000 kPa, x2 = 0.8528 | – | – | 680.5 ± 1.6 | 630 ± 1.6
10000 kPa, x2 = 0.853 | 815.6 ± 0.5 | 790.9 ± 0.8 | – | –
10000 kPa, x2 = 0.9348 | 817.8 ± 0.6 | 771.4 ± 0.9 | – | –
10000 kPa, x2 = 0.9771 | 801 ± 1.1 | 721.2 ± 1.7 | – | –
10000 kPa, x2 = 0.9877 | 790.6 ± 1.4 | 689.4 ± 2.4 | – | –
20000 kPa, x2 = 0 | 755.1 ± 0.9 | 748.5 ± 0.9 | 1372.4 ± 1.8 | 1337.9 ± 1.8
20000 kPa, x2 = 0.2032 | – | – | 1304.1 ± 1.7 | 1269.6 ± 1.8
20000 kPa, x2 = 0.205 | 763.6 ± 0.8 | 756.5 ± 0.8 | – | –
20000 kPa, x2 = 0.3989 | – | – | 1214.9 ± 1.5 | 1180.3 ± 1.7
20000 kPa, x2 = 0.4 | 776.3 ± 0.7 | 768.1 ± 0.7 | – | –
20000 kPa, x2 = 0.6007 | – | – | 1084.4 ± 1.4 | 1046.4 ± 1.7
20000 kPa, x2 = 0.6008 | 796.3 ± 0.7 | 786.1 ± 0.6 | – | –
20000 kPa, x2 = 0.7497 | 820.5 ± 0.6 | 806.5 ± 0.6 | – | –
20000 kPa, x2 = 0.7498 | – | – | 937 ± 1.4 | 893.3 ± 1.7
20000 kPa, x2 = 0.8528 | – | – | 800.1 ± 1.5 | 751.2 ± 1.7
20000 kPa, x2 = 0.853 | 844.1 ± 0.6 | 824.1 ± 0.5 | – | –
20000 kPa, x2 = 0.9348 | 868.5 ± 0.5 | 838.9 ± 0.6 | – | –
20000 kPa, x2 = 0.9771 | 883.1 ± 0.6 | 842 ± 0.7 | – | –
20000 kPa, x2 = 0.9877 | 887.1 ± 0.6 | 841.4 ± 0.8 | – | –
30000 kPa, x2 = 0 | 761.3 ± 1 | 754.8 ± 0.9 | 1421.4 ± 1.8 | 1389.6 ± 1.8
30000 kPa, x2 = 0.2032 | – | – | 1356.4 ± 1.8 | 1322.9 ± 1.7
30000 kPa, x2 = 0.205 | 770.5 ± 0.9 | 763.6 ± 0.8 | – | –
30000 kPa, x2 = 0.3989 | – | – | 1272 ± 1.6 | 1238.8 ± 1.7
30000 kPa, x2 = 0.4 | 784.3 ± 0.8 | 776.4 ± 0.7 | – | –
30000 kPa, x2 = 0.6007 | – | – | 1147.4 ± 1.4 | 1112.9 ± 1.6
30000 kPa, x2 = 0.6008 | 806.8 ± 0.7 | 797.2 ± 0.7 | – | –
30000 kPa, x2 = 0.7497 | 835.2 ± 0.6 | 822.5 ± 0.6 | – | –
30000 kPa, x2 = 0.7498 | – | – | 1010.4 ± 1.4 | 971.4 ± 1.6
30000 kPa, x2 = 0.8528 | – | – | 885.8 ± 1.5 | 843.1 ± 1.5
30000 kPa, x2 = 0.853 | 865.6 ± 0.6 | 847.6 ± 0.6 | – | –
30000 kPa, x2 = 0.9348 | 902.4 ± 0.6 | 877.6 ± 0.5 | – | –
30000 kPa, x2 = 0.9771 | 929.5 ± 0.6 | 897.3 ± 0.6 | – | –
30000 kPa, x2 = 0.9877 | 937.7 ± 0.7 | 902.7 ± 0.6 | – | –
40000 kPa, x2 = 0 | 766.9 ± 1 | 760.8 ± 1 | 1468.5 ± 1.9 | 1436.8 ± 1.8
40000 kPa, x2 = 0.2032 | – | – | 1404.4 ± 1.7 | 1373.3 ± 1.7
40000 kPa, x2 = 0.205 | 776.8 ± 0.9 | 770.3 ± 0.9 | – | –
40000 kPa, x2 = 0.3989 | – | – | 1323 ± 1.6 | 1291 ± 1.7
40000 kPa, x2 = 0.4 | 791.6 ± 0.8 | 784.2 ± 0.8 | – | –
40000 kPa, x2 = 0.6007 | – | – | 1204.4 ± 1.5 | 1170.9 ± 1.7
40000 kPa, x2 = 0.6008 | 816 ± 0.7 | 807.2 ± 0.7 | – | –
40000 kPa, x2 = 0.7497 | 847.6 ± 0.6 | 836.1 ± 0.6 | – | –
40000 kPa, x2 = 0.7498 | – | – | 1073.3 ± 1.4 | 1037.1 ± 1.6
40000 kPa, x2 = 0.8528 | – | – | 955.4 ± 1.4 | 917.2 ± 1.5
40000 kPa, x2 = 0.853 | 883.1 ± 0.7 | 866.6 ± 0.6 | – | –
40000 kPa, x2 = 0.9348 | 928.1 ± 0.6 | 906.5 ± 0.6 | – | –
40000 kPa, x2 = 0.9771 | 963.1 ± 0.6 | 935.9 ± 0.6 | – | –
40000 kPa, x2 = 0.9877 | 973.9 ± 0.7 | 944.5 ± 0.7 | – | –
50000 kPa, x2 = 0 | 772 ± 1 | 766.3 ± 1.1 | 1512.3 ± 1.9 | 1481.5 ± 1.9
50000 kPa, x2 = 0.2032 | – | – | 1449.9 ± 1.8 | 1419.2 ± 1.8
50000 kPa, x2 = 0.205 | 782.5 ± 1 | 776.4 ± 1 | – | –
50000 kPa, x2 = 0.3989 | – | – | 1370.3 ± 1.6 | 1339.9 ± 1.7
50000 kPa, x2 = 0.4 | 798.2 ± 0.9 | 791.2 ± 0.9 | – | –
50000 kPa, x2 = 0.6007 | – | – | 1256 ± 1.5 | 1224.3 ± 1.7
50000 kPa, x2 = 0.6008 | 824.4 ± 0.8 | 816.1 ± 0.8 | – | –
50000 kPa, x2 = 0.7497 | 858.7 ± 0.6 | 848 ± 0.6 | – | –
50000 kPa, x2 = 0.7498 | – | – | 1128.9 ± 1.4 | 1095.2 ± 1.6
50000 kPa, x2 = 0.8528 | – | – | 1015.3 ± 1.4 | 979.7 ± 1.4
50000 kPa, x2 = 0.853 | 898.1 ± 0.7 | 882.5 ± 0.7 | – | –
50000 kPa, x2 = 0.9348 | 950.3 ± 0.6 | 929.7 ± 0.6 | – | –
50000 kPa, x2 = 0.9771 | 990.1 ± 0.7 | 965.6 ± 0.6 | – | –
50000 kPa, x2 = 0.9877 | 1002.9 ± 0.8 | 976.7 ± 0.7 | – | –
60000 kPa, x2 = 0 | 776.8 ± 1.1 | 771.5 ± 1.1 | 1553.7 ± 1.9 | 1524.2 ± 1.9
60000 kPa, x2 = 0.2032 | – | – | 1492.5 ± 1.8 | 1462.4 ± 1.8
60000 kPa, x2 = 0.205 | 787.9 ± 1 | 782.1 ± 1 | – | –
60000 kPa, x2 = 0.3989 | – | – | 1414.9 ± 1.6 | 1385.2 ± 1.7
60000 kPa, x2 = 0.4 | 804.4 ± 0.9 | 797.6 ± 0.9 | – | –
60000 kPa, x2 = 0.6007 | – | – | 1303.2 ± 1.5 | 1272.9 ± 1.7
60000 kPa, x2 = 0.6008 | 832.1 ± 0.8 | 824.2 ± 0.8 | – | –
60000 kPa, x2 = 0.7497 | 868.7 ± 0.7 | 858.7 ± 0.7 | – | –
60000 kPa, x2 = 0.7498 | – | – | 1179.5 ± 1.4 | 1147 ± 1.5
60000 kPa, x2 = 0.8528 | – | – | 1068.3 ± 1.4 | 1034.9 ± 1.4
60000 kPa, x2 = 0.853 | 911.4 ± 0.8 | 896.4 ± 0.7 | – | –
60000 kPa, x2 = 0.9348 | 967.4 ± 0.7 | 949.4 ± 0.6 | – | –
60000 kPa, x2 = 0.9771 | 1012.8 ± 0.7 | 990.3 ± 0.7 | – | –
60000 kPa, x2 = 0.9877 | 1027.1 ± 0.8 | 1003.1 ± 0.8 | – | –
70000 kPa, x2 = 0 | 781.4 ± 1.1 | 776.4 ± 1.1 | 1593.3 ± 2 | 1564.6 ± 1.9
70000 kPa, x2 = 0.2032 | – | – | 1532.6 ± 1.8 | 1503.9 ± 1.8
70000 kPa, x2 = 0.205 | 793.2 ± 1 | 787.4 ± 1 | – | –
70000 kPa, x2 = 0.3989 | – | – | 1456.7 ± 1.7 | 1427.5 ± 1.8
70000 kPa, x2 = 0.4 | 810.2 ± 0.9 | 803.6 ± 0.9 | – | –
70000 kPa, x2 = 0.6007 | – | – | 1346.4 ± 1.5 | 1317.9 ± 1.7
70000 kPa, x2 = 0.6008 | 839.3 ± 0.8 | 831.6 ± 0.8 | – | –
70000 kPa, x2 = 0.7497 | 878 ± 0.8 | 868.2 ± 0.7 | – | –
70000 kPa, x2 = 0.7498 | – | – | 1225.4 ± 1.4 | 1195.2 ± 1.6
70000 kPa, x2 = 0.8528 | – | – | 1116.7 ± 1.5 | 1084.8 ± 1.4
70000 kPa, x2 = 0.853 | 923.3 ± 0.8 | 908.7 ± 0.8 | – | –
70000 kPa, x2 = 0.9348 | 983.5 ± 0.7 | 966.6 ± 0.7 | – | –
70000 kPa, x2 = 0.9771 | 1032.6 ± 0.8 | 1011.6 ± 0.7 | – | –
70000 kPa, x2 = 0.9877 | 1048.1 ± 0.8 | 1025.8 ± 0.8 | – | –

Source: the NIST ThermoML archive (doi:10.1021/acs.jced.9b00311)
